Results reported in patent publication EP1100483B1, “GLUCOCORTICOID-SELECTIVE ANTI-INFLAMMATORY AGENTS” (Abbott Laboratories, priority 1998, dated 2000).

target: T1, human progesterone receptor-A [PRA] isoform (Homo sapiens, UniProt P06401); assay: progesterone receptor cytosol (PR) binding assay, [3H]-progesterone competition; settings: [3H]Prog ~0.8 nM, 4 °C overnight, Cheng-Prusoff
T1 construct: purchased Ligand Pharmaceuticals (San Diego, CA); host or cells: insect SF21 cells (baculovirus)
T1 sequence (P06401 1-769 isoform P06401-2): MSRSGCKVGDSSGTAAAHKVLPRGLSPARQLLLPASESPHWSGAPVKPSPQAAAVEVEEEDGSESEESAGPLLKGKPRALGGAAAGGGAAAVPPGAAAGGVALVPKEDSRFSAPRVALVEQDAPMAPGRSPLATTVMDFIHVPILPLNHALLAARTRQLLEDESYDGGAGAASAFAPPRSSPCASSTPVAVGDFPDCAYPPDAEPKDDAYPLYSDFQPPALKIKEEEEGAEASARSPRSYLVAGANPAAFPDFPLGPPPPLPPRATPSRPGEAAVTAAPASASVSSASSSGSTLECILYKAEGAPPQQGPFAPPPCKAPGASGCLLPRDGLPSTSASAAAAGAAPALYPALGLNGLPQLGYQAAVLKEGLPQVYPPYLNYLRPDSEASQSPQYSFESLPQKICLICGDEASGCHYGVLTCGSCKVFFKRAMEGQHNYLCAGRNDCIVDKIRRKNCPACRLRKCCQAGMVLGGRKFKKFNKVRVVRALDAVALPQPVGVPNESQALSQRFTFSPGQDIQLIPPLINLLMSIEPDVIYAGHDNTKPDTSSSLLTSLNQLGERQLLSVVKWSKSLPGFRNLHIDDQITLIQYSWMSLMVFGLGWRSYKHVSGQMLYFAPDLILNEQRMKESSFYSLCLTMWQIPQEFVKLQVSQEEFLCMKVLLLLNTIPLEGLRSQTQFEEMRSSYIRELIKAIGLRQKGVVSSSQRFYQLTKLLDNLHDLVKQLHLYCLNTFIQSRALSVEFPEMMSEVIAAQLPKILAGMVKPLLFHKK
Source text: For glucocorticoid receptor (OR) cytosol binding assays, the procedure described in Anal. Biochem. 1970, 37, 244-252, hereby incorporated by reference, was used. Briefly, cytosol preparations of human glucocorticoid receptor-α [GRX] isoform and human progesterone receptor-A [PRA] isoform were obtained from Ligand Pharmaceuticals (San Diego, CA). Both receptor cDNAs were cloned into baculovirus expression vectors and expressed in insect SF21 cells. [^3H]-dexamethasone (Dex, specific activity 82-86 Ci/mmole) and [^3H]-progesterone (Prog, specific activity 97-102 Ci/mmol) were purchased from Amersham Life Sciences (Arlington Heights, IL). Glass fiber type C multiscreen MAFC NOB plates were from Millipore ( Burlington, MA). Hydroxyapatide Bio-Gel HTP gel was obtained from Bio-Rad Laboratories (Hercules. CA). Tris(hydroxymethyl)aminomethane (Tris), ethylenediaminetetraacetic acid (EDTA), glycerol, dithiothreitol (DTT) and sodium moylybdate were obtained from Sigma Chemicals (St. Louis, MO). Microscint-20 scintillation fluid was obtained from Packard Instrument (Meriden, CT).
Stock solutions (32 mM) of compounds were prepared in dimethylsulfoxide (DMSO), and 50X solutions of test compounds were prepared from the 32 mM solution with a 50:50 mixture of DMSO/ethanol. The 50X solution was then diluted with binding buffer that contained 10 mM Tri-HCl, 1.5 mM EDTA, 10% glycerol, 1 mM DTT, 20 mM sodium molybdate. pH 7.5 at 4 °C. 1% DMSO/ethanol was also present in the binding assay.
For progesterone receptor cytosol (PR) binding assays, [^3H]Prog (~36,000 dpm (∼0.8 nM)), PRA cytosol (~40 µg protein), test compounds and binding buffer were mixed in a total volume of 200 µL and incubated at 4 °C overnight in a plate shaker. Specific binding was defined as the difference between binding of [^3H]Prog in the absence and in the presence of 3 µM unlabeled Prog.
After an overnight incubation, 50 µL of hydroxyapatite (25 % weight/volume) slurry were added to each well and plates were incubated for 10 min at 4 °C in a plate shaker. Plates were suctioned with a Millipore vacuum manifold and each well was rinsed with 300 µL of ice-cold binding buffer. A 250 µL aliquot of Packard Microscint-20 was added to each well and the wells were shaken at room temperature for 20 minutes. The amount of radioactivity was determined with a Packard TopCount plate reader.
The Ki of test compounds was determined using the Cheng-Prusoff equation Ki =IC50/(1+[L*]/[KL]) where L* is the concentration of radioligand and KL is the dissociation constant of the radioligand determined from saturation analysis. For GRX, KL was ∼1.5 nM, and for PRA, KL was ~4.5 nM.

| Compound | Ki [nM] |
| --- | --- |
| CC(=O)OCCN(C)c1ccc(C(c2ccc(N(C)CCOC(C)=O)cc2)c2cc([N+](=O)[O-])ccc2Cl)cc1 [Example 31, 4',4" bis(N-(2-acetoxyethyl) N-methylamino)-2-chloro-5-nitrotriphenylmethane] | 2680 |
| O=[N+]([O-])c1ccc(Cl)c(C(c2ccc(NCc3ccccc3)cc2)c2ccc(NCc3ccccc3)cc2)c1 [Example 36, 4',4" bis(N-benzylamino)-2-chloro-5-nitrotriphenylmethane] | 2590 |
| CNc1ccc(C(c2ccc(NC)cc2)c2cc(Cl)ccc2Cl)cc1 [Example 27, 4',4" bis(methylamino)-2,5-dichlorotriphenylmethane] | 318 |
| CN(C)c1ccc(C(Sc2ccccc2)c2cc([N+](=O)[O-])ccc2Cl)cc1 (stereo not shown) [Example 54, phenyl-[(4'-dimethylaminophenyl)-(2-chloro-5-nitrophenyl)methyl]thioether] | 2590 |
| CNc1ccc(C(c2ccc(NC)cc2)c2cc([N+](=O)[O-])ccc2Cl)cc1 [Example 23, 4',4" bis(methylamino)-2-chloro-5-nitrotriphenylmethane] | 624 |
| CNc1ccc(C(c2ccc(N(C)C)cc2)c2cc([N+](=O)[O-])ccc2Cl)cc1 (stereo not shown) [Example 39, 4'-dimethylamino-4"-methylamino-2-chloro-5-nitrotriphenylmethane] | 510 |
| CN(C)c1ccc(C(c2ccc(N(C)C)cc2)c2cc(Cl)ccc2Cl)cc1 [Example 24, 4',4" bis(dimethylamino)-2,5-dichlorotriphenylmethane] | 2590 |
| CN(C)c1ccc(C(c2ccc(N(C)CCO)cc2)c2cc([N+](=O)[O-])ccc2Cl)cc1 (stereo not shown) [Example 42, 4'-dimethylamino-4"-(N-methyl-N-(2-hydroxyethyl)amino)-2-chloro-5-nitrotriphenylmethane] | 187 |
| CN(C)c1ccc(C(c2ccc(N(C)C)cc2)c2cc([N+](=O)[O-])ccc2Cl)cc1 [Example 1, 4',4" bis(dimethylamino)-2-chloro-5-nitrotriphenylmethane] | > 10000 |
| CNc1ccc(C(c2ccc(N(C)CCOC(C)=O)cc2)c2cc([N+](=O)[O-])ccc2Cl)cc1 (stereo not shown) [Example 49, 4'-methylamino-4"-(N-(2-acetoxyethyl)-N-methylamino)-2-chloro-5-nitrotriphenylmethane] | 241 |
| CN(C)c1ccc(C(Oc2ccccc2)c2cc([N+](=O)[O-])ccc2Cl)cc1 (stereo not shown) [Example 52, phenyl-[(4'-dimethylaminophenyl)-(2-chloro-5-nitrophenyl)methyl] ether] | 698 |
| CC(=O)OCCN(C)c1ccc(C(c2ccc(N(C)C)cc2)c2cc([N+](=O)[O-])ccc2Cl)cc1 (stereo not shown) [Example 51, 4'-dimethylamino-4"-(N-methyl-N-(2-acetoxyethyl)amino)-2-chloro-5-nitrotriphenylmethane] | 1080 |
| CN(CCO)c1ccc(C(c2ccc(N(C)CCO)cc2)c2cc([N+](=O)[O-])ccc2Cl)cc1 [Example 32, 4',4" bis(N-(2-hydroxyethyl) N-methylamino)-2-chloro-5-nitrotriphenylmethane] | 536 |
